Reference: patent publication US7709516B2, “Helix 12 directed non-steroidal antiandrogens” (Endorecherche, Inc., priority 2005, dated 2010)
Like-named read-outs stand apart in the source and are kept apart here.

How the values were obtained:
[1] = tested on: Shionogi mouse mammary carcinoma cells; experiment: Androgenic/antiandrogenic activity: inhibition of DHT-stimulated Shionogi cell number; format: cell-based; settings: DHT-stimulated Shionogi cell number
[2] = tested on: rat prostate, seminal vesicle, levator ani muscle; experiment: Systemic antiandrogenic activity in orchidectomized immature male rats with DHT implant; format: in vivo; settings: for inhibition in vivo at 0.5 mg: Rattus norvegicus, 168 h; for Prostate % inhibition / Lev Ani % inhibition / SV % inhibition: Table 2
Human Androgen Receptor = target: T1, Human Androgen Receptor (Homo sapiens, UniProt P10275); experiment: Androgen receptor binding assay ([3H]R1881, HAP) in cytosol of HEK-293 cells transfected with hAR; settings: relative to R1881 = 100, transfected cells
T1 sequence (P10275 1-920): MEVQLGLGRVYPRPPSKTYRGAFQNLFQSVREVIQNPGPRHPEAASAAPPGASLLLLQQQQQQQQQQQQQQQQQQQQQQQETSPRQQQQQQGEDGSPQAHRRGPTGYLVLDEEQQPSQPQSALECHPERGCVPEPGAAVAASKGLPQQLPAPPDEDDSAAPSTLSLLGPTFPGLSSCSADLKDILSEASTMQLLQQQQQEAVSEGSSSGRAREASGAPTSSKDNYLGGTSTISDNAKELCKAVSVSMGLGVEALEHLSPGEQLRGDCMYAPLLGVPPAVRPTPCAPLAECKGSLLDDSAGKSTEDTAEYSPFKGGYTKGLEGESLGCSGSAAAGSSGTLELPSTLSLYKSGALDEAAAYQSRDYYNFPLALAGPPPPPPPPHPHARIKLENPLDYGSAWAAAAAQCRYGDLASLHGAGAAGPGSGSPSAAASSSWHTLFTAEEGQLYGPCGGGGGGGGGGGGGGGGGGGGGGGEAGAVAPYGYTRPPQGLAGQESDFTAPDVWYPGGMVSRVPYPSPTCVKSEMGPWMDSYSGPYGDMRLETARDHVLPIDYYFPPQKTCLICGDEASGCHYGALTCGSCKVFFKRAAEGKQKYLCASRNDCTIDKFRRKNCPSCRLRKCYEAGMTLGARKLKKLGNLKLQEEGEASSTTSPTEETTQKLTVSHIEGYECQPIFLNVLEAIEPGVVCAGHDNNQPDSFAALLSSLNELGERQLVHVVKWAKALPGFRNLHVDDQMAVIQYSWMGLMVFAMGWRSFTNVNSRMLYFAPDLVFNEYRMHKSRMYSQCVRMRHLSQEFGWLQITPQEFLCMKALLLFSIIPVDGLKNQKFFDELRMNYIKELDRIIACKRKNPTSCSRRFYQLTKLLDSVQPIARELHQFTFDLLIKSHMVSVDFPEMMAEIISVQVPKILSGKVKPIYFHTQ

[3] = Mus musculus, read-out: Shionogi Antiandrogenic Activity IC50, Table 1
[4] = read-out: Lev Ani % inhibition, Table 1, rat +DHT, s.c. or p.o. (route not marked), levator ani, 0.5 mg/animal daily 7 days
[5] = read-out: Prostate % inhibition, Table 1, rat +DHT, s.c. or p.o. (route not marked in cell), 0.5 mg/animal daily 7 days
[6] = read-out: SV % inhibition, Table 1, rat +DHT, s.c. or p.o. (route not marked), seminal vesicle, 0.5 mg/animal daily 7 days
[7] = Mus musculus, read-out: Shionogi Antiandrogenic Activity IC50, Table 2
[8] = read-out: Lev Ani % inhibition, Table 2, rat +DHT, s.c. or p.o. (route not marked), levator ani, 0.5 mg/animal daily 7 days
[9] = read-out: Prostate % inhibition, Table 2, rat +DHT, s.c. or p.o. (route not marked), 0.5 mg/animal daily 7 days
[10] = read-out: SV % inhibition, Table 2, rat +DHT, s.c. or p.o. (route not marked), seminal vesicle, 0.5 mg/animal daily 7 days
[11] = Mus musculus, Table 2, read-out: Shionogi Antiandrogenic Activity IC50
[12] = read-out: Prostate % inhibition
[13] = rat +DHT, s.c. or p.o. (route not marked), 0.5 mg/animal daily 7 days
[14] = rat +DHT, s.c. or p.o. (route not marked), levator ani, 0.5 mg/animal daily 7 days
[15] = rat +DHT, s.c. or p.o. (route not marked), seminal vesicle, 0.5 mg/animal daily 7 days

Compound | IC50 [1, 3] [µM] | inhibition in vivo at 0.5 mg [2, 4] [%] | inhibition in vivo at 0.5 mg [2, 5] [%] | inhibition in vivo at 0.5 mg [2, 6] [%] | Human Androgen Receptor Binding (%) RBA R1881 = 100 (Human Androgen Receptor; Table 1) [%] | Human Androgen Receptor Binding (%) RBA R1881 = 100 (Human Androgen Receptor; Table 2) [%] | further results
COC(=O)c1ccc(OCCCN2C(=S)N(c3ccc(C#N)c(C(F)(F)F)c3)C(=O)C2(C)C)cc1 [EM-7260] | 0.017 | 0 | 25 | 47 | 93.3 | – | –
Cc1cc(CNC(C)C)ccc1OCCCN1C(=S)N(c2ccc(C#N)c(C(F)(F)F)c2)C(=O)C1(C)C [EM-7297] | 0.0063 | 31 | 29 | 37 | 59.0 | – | –
CN(C)Cc1ccc(OCCCN2C(=O)N(c3ccc(C#N)c(C(F)(F)F)c3)C(=O)C2(C)C)cc1 [EM-7334, 4-{3-[3-(4-Dimethylaminomethyl-phenoxy)-propyl]-4,4-dimethyl-2,5-dioxo-imidazolidin-1-yl}-2-trifluoromethyl-benzonitrile] | – | – | 14 | 26 | 0.5 | – | IC50 ([1]; Mus musculus, Table 1, read-out: Shionogi Antiandrogenic Activity IC50): 0.118 µM
CC1(C)C(=O)N(c2ccc(C#N)c(C(F)(F)F)c2)C(=S)N1CCCOc1ccc(CN2CCC(O)C2)cc1 (stereo not drawn) [EM-7365] | 0.006 | 19 | 22 | 43 | 24.0 | – | –
Cc1cc(CN2CCOCC2)ccc1OCCCN1C(=S)N(c2ccc(C#N)c(C(F)(F)F)c2)C(=O)C1(C)C [EM-7366] | 0.022 | 16 | 26 | 70 | 209.0 | – | –
CC1(C)C(=O)N(c2ccc(C#N)c(C(F)(F)F)c2)C(=S)N1CCCOc1ccc(CN2CCC(=O)C2)cc1 [EM-7371] | 0.015 | 21 | 16 | 48 | 53.0 | – | –
Cc1cc(CN2CCCC2)ccc1OCCC1(O)CCN(c2ccc(C#N)c(C(F)(F)F)c2)CC1 [EM-7657] | – | – | – | – | – | 3.0 | IC50 [1, 7]: 0.022 µM; inhibition in vivo at 0.5 mg [2, 8]: 55%; inhibition in vivo at 0.5 mg [2, 9]: 24%; inhibition in vivo at 0.5 mg [2, 10]: 41%
Cc1cc(CN2CCOCC2)ccc1OCCC1(O)CCN(c2ccc(C#N)c3ccccc23)CC1 [EM-7676] | – | – | – | – | – | 0.3 | IC50 [1, 11]: 0.147 µM; inhibition in vivo at 0.5 mg ([2]; read-out: Lev Ani % inhibition): 0%; inhibition in vivo at 0.5 mg [2, 12]: 0%; inhibition in vivo at 0.5 mg ([2]; read-out: SV % inhibition): 3%
Cc1cc(CN2CCCC2)ccc1OCCC1(O)CCN(c2ccc(C#N)c(Cl)c2)CC1 [EM-7678] | – | – | – | – | – | 3.5 | IC50 [1, 7]: 0.0138 µM; Prostate % inhibition [2, 13]: 7%; Lev Ani % inhibition [2, 14]: 9%; SV % inhibition [2, 15]: 10%
CCC(NC1CCCCC1)c1ccc(COCCN2CCN(c3ccc(C#N)c(C(F)(F)F)c3)CC2)cc1 (stereo not drawn) [EM-7727] | – | – | – | – | – | <1.0 | IC50 [1, 7]: 0.0704 µM; inhibition in vivo at 0.5 mg [2, 8]: 0%; inhibition in vivo at 0.5 mg [2, 9]: 0%; inhibition in vivo at 0.5 mg [2, 10]: 8%
Cc1cc(CN2CCCC2)ccc1OCCC1(O)CCN(c2ccc(C#N)c(Cl)c2)CC1 [EM-7735] | – | – | – | – | – | 9.6 | IC50 ([1]; read-out: Shionogi Antiandrogenic Activity IC50, Table 2): 0.0079 µM; Prostate % inhibition [2, 13]: 0%; Lev Ani % inhibition [2, 14]: 29%; SV % inhibition [2, 15]: 23%
CCC(c1ccc(OCCC2(O)CCN(c3ccc(C#N)c4ccccc34)CC2)cc1)N1CCCC1 (stereo not drawn) [EM-7738] | – | – | – | – | – | 10.5 | IC50 [1, 11]: 0.0183 µM; inhibition in vivo at 0.5 mg ([2]; read-out: Lev Ani % inhibition): 10%; inhibition in vivo at 0.5 mg [2, 12]: 0%; inhibition in vivo at 0.5 mg ([2]; read-out: SV % inhibition): 16%
Cc1cc(CN2CCCC2)ccc1OCCCN1C(=S)N(c2ccc(C#N)c3ccccc23)C(=O)C1(C)C [EM-7775] | 0.0605 | 10 | 0 | 25 | 13.2 | – | –
Cc1cc(CN2CCCC2C)ccc1OCCC1(O)CCN(c2ccc(C#N)c(Cl)c2)CC1 (stereo not drawn) [EM-7791] | – | – | – | – | – | 1.0 | IC50 [1, 7]: 0.0205 µM; inhibition in vivo at 0.5 mg [2, 8]: 14%; inhibition in vivo at 0.5 mg [2, 9]: 0%; inhibition in vivo at 0.5 mg [2, 10]: 29%
CCC(CC)NC(CC)c1ccc(COCCN2CCN(c3ccc(C#N)c(C(F)(F)F)c3)CC2)cc1 (stereo not drawn) [EM-7792] | – | – | – | – | – | <1.0 | IC50 [1, 7]: 0.0829 µM; inhibition in vivo at 0.5 mg [2, 8]: 7%; inhibition in vivo at 0.5 mg [2, 9]: 21%; inhibition in vivo at 0.5 mg [2, 10]: 0%
CC1(C)C(=O)N(c2ccc(C#N)c(Cl)c2)C(=S)N1CCCOc1ccc(CNC2CCCC2)cc1 [EM-7819] | 0.0083 | 44 | 54 | 80 | 12.9 | – | –
CN(C)Cc1ccc(OCCCN2C(=S)N(c3ccc(C#N)c(Cl)c3)C(=O)C2(C)C)cc1 [EM-7821] | 0.0052 | 32 | 50 | 75 | 6.1 | – | –
CC(C)NCc1ccc(OCCCN2C(=S)N(c3ccc(C#N)c(Cl)c3)C(=O)C2(C)C)cc1 [EM-7822] | 0.0059 | 60 | 53 | 82 | 4.9 | – | –
CC(C)NCc1ccc(OCCCN2C(=S)N(c3ccc(C#N)c(C(F)(F)F)c3)C(=O)C2(C)C)nc1 [EM-7848] | 0.0114 | 68 | 51 | 86 | 0.5 | – | –
CC(C)NCc1ccc(OCCCN2C(=S)N(c3ccc(C#N)c(C(F)(F)F)c3)C(=O)C2(C)C)c(F)c1 [EM-7918] | 0.0066 | 53 | 44 | 64 | 16.9 | – | –
